Experimental data as given in ChEMBL document CHEMBL5055665, “Discovery of the Triazolo[1,5-a]Pyrimidine-Based Derivative WS-898 as a Highly Efficacious and Orally Bioavailable ABCB1 Inhibitor Capable of Overcoming Multidrug Resistance” (J Med Chem, 2021).
Values belong to the molecule of their own block, whether it stands above or below them.

Tests used:
SW-620 [1] = experiment: Reversal of resistance to paclitaxel-induced cytotoxicity in human SW-620/AD300 cells assessed as reduction in paclitaxel IC50 at 2 uM preincubated for 4 hrs followed by paclitaxel addition and measured after 72 hrs by MTT assay (reference value: 4.23 +/- 0.50 uM); type: functional, cell-based
SW-620 [2] = experiment: Reversal of resistance to paclitaxel-induced cytotoxicity in human SW-620/AD300 cells assessed as reversal fold at 2 uM preincubated for 4 hrs followed by paclitaxel addition and measured after 72 hrs by MTT assay relative to paclitaxel; type: functional; settings: time 76 hrs
SW-620 [3] = experiment: Reversal of resistance to paclitaxel-induced cytotoxicity in human SW-620/AD300 cells assessed as reversal fold at 1 uM preincubated for 4 hrs followed by paclitaxel addition and measured after 72 hrs by MTT assay relative to paclitaxel; type: functional; settings: time 76 hrs
SW-620 [4] = experiment: Reversal of resistance to paclitaxel-induced cytotoxicity in human SW-620/AD300 cells assessed as reduction in paclitaxel IC50 at 1 uM preincubated for 4 hrs followed by paclitaxel addition and measured after 72 hrs by MTT assay (reference value: 4.23 +/- 0.50 uM); type: functional, cell-based
SW-620 [5] = experiment: Reversal of resistance to paclitaxel-induced cytotoxicity in human SW-620/AD300 cells assessed as reversal fold at 5 uM preincubated for 4 hrs followed by paclitaxel addition and measured after 72 hrs by MTT assay relative to paclitaxel; type: functional; settings: time 76 hrs
SW-620 [6] = experiment: Reversal of resistance to paclitaxel-induced cytotoxicity in human SW-620/AD300 cells assessed as reduction in paclitaxel IC50 at 5 uM preincubated for 4 hrs followed by paclitaxel addition and measured after 72 hrs by MTT assay (reference value: 4.23 +/- 0.50 uM); type: functional, cell-based
SW-620 [7] = experiment: Reversal of resistance to paclitaxel-induced cytotoxicity in human SW-620/AD300 cells assessed as reversal fold at 4 uM preincubated for 4 hrs followed by paclitaxel addition and measured after 72 hrs by MTT assay relative to paclitaxel; type: functional; settings: time 76 hrs
SW-620 [8] = experiment: cells; settings: Homo sapiens
SW-620 [9] = experiment: Reversal of resistance to paclitaxel-induced cytotoxicity in human SW-620/AD300 cells assessed as reversal fold at 20 uM preincubated for 4 hrs followed by paclitaxel addition and measured after 72 hrs by MTT assay relative to paclitaxel; type: functional; settings: time 76 hrs
SW-620 [10] = experiment: Reversal of resistance to paclitaxel-induced cytotoxicity in human SW-620/AD300 cells assessed as reduction in paclitaxel IC50 at 20 uM preincubated for 4 hrs followed by paclitaxel addition and measured after 72 hrs by MTT assay (reference value: 4.23 +/- 0.50 uM); type: functional, cell-based
SW-620 [11] = experiment: Reversal of resistance to paclitaxel-induced cytotoxicity in human SW-620/AD300 cells assessed as reduction in paclitaxel IC50 at 10 uM preincubated for 4 hrs followed by paclitaxel addition and measured after 72 hrs by MTT assay (reference value: 4.23 +/- 0.50 uM); type: functional, cell-based
SW-620 [12] = experiment: Reversal of resistance to paclitaxel-induced cytotoxicity in human SW-620/AD300 cells assessed as reversal fold at 10 uM preincubated for 4 hrs followed by paclitaxel addition and measured after 72 hrs by MTT assay relative to paclitaxel; type: functional; settings: time 76 hrs

Structure (SMILES): Cc1cc(Nc2ccc(C(=O)/C=C/c3ccc4ccccc4c3)cc2)n2nc(SCC(=O)c3ccccc3)nc2n1
IC50 (SW-620 [1]): 0.19 µM | fold change (FC) (SW-620 [2]): 22.26

Structure (SMILES): Cc1cc(Nc2ccc(C(=O)/C=C/c3ccccc3F)cc2)n2nc(SCc3nc4ccccc4[nH]3)nc2n1
IC50 (SW-620 [1]): 0.25 µM | fold change (FC) (SW-620 [2]): 16.92

Structure (SMILES): Cc1cc(Nc2ccc(C(=O)/C=C/c3ccc(OC(F)(F)F)c(OC(F)(F)F)c3)cc2)n2nc(SCc3nc4ccccc4[nH]3)nc2n1
fold change (FC) (SW-620 [3]): 35.25 | IC50 (SW-620 [4]): 0.12 µM

Structure (SMILES): COc1ccc(/C=C/C(=O)c2ccc(Nc3cc(C)nc4nc(SCc5nc6ccccc6[nH]5)nn34)cc2)cc1F
IC50 (SW-620 [1]): 0.14 µM | fold change (FC) (SW-620 [2]): 30.21

Structure (SMILES): Cc1cc(Nc2ccc(C(=O)/C=C/c3ccc4ccccc4c3)cc2)n2nc(SCc3ccc(Br)cc3)nc2n1
fold change (FC) (SW-620 [5]): 11.43 | IC50 (SW-620 [6]): 0.37 µM

Structure (SMILES): Cc1cc(Nc2ccc(C(=O)/C=C/c3ccc(Cl)cc3)cc2)n2nc(SCc3nc4ccccc4[nH]3)nc2n1
IC50 (SW-620 [1]): 0.23 µM | fold change (FC) (SW-620 [2]): 18.39

IC50 (SW-620 [8]): 0.69 µM
Structure (SMILES): Cc1cc(Nc2ccc(C(=O)/C=C/c3ccc4ccccc4c3)cc2)n2nc(SCc3c(Cl)cccc3Cl)nc2n1
fold change (FC) (SW-620 [7]): 6.13

Structure (SMILES): Cc1ccc(CSc2nc3nc(C)cc(Nc4ccc(C(=O)/C=C/c5ccc6ccccc6c5)cc4)n3n2)cc1
fold change (FC) (SW-620 [5]): 4.81 | IC50 (SW-620 [6]): 0.88 µM

Structure (SMILES): Cc1cc(Nc2ccc(C(=O)/C=C/c3ccc4ccccc4c3)cc2)n2nc(SCc3ccc(Cl)cc3)nc2n1
fold change (FC) (SW-620 [5]): 7.42 | IC50 (SW-620 [6]): 0.57 µM

Structure (SMILES): Cc1cc(Nc2ccc(C(=O)/C=C/c3ccc4ccccc4c3)cc2)n2nc(SCc3ccc(F)cc3)nc2n1
fold change (FC) (SW-620 [5]): 13.22 | IC50 (SW-620 [6]): 0.32 µM

Structure (SMILES): Cc1cc(Nc2ccc(C(=O)/C=C/c3ccc(Br)cn3)cc2)n2nc(SCc3nc4ccccc4[nH]3)nc2n1
fold change (FC) (SW-620 [3]): 39.09 | IC50 (SW-620 [4]): 0.11 µM

Structure (SMILES): CC(=O)c1ccc(Nc2cc(C)nc3nc(SCc4nc5ccccc5[nH]4)nn23)cc1
fold change (FC) (SW-620 [9]): 2.6 | IC50 (SW-620 [10]): 1.63 µM

Structure (SMILES): Cc1cc(Nc2ccc(C(=O)/C=C/c3ccc4ccccc4c3)cc2)n2nc(SC(=O)c3csc4ccc(Cl)cc34)nc2n1
IC50 (SW-620 [1]): 0.035 µM | fold change (FC) (SW-620 [2]): 120.86

Structure (SMILES): Cc1cc(Nc2ccc(C(=O)/C=C/c3ccc4ccccc4c3)cc2)n2nc(SCc3ccc(C(F)(F)F)cc3)nc2n1
IC50 (SW-620 [11]): 1.45 µM | fold change (FC) (SW-620 [12]): 2.92

Structure (SMILES): Cc1cc(Nc2ccc(C(=O)/C=C/c3ccc4ccccc4c3)cc2)n2nc(SCc3cccc(Br)c3)nc2n1
fold change (FC) (SW-620 [5]): 15.67 | IC50 (SW-620 [6]): 0.27 µM

Structure (SMILES): COc1cc(/C=C/C(=O)c2ccc(Nc3cc(C)nc4nc(SCc5nc6ccccc6[nH]5)nn34)cc2)cc(OC)c1OC
fold change (FC) (SW-620 [3]): 56.4 | IC50 (SW-620 [4]): 0.075 µM

Structure (SMILES): Cc1cc(Nc2ccc(C(=O)/C=C/c3cccc(Br)n3)cc2)n2nc(SCc3nc4ccccc4[nH]3)nc2n1
fold change (FC) (SW-620 [3]): 72.93 | IC50 (SW-620 [4]): 0.058 µM

IC50 (SW-620 [8]): 0.87 µM
Structure (SMILES): C#CCSc1nc2nc(C)cc(Nc3ccc(C(=O)/C=C/c4ccc5ccccc5c4)cc3)n2n1
fold change (FC) (SW-620 [7]): 4.86

Structure (SMILES): Cc1cc(Nc2ccc(C(=O)/C=C/c3ccc(-n4cccn4)cc3)cc2)n2nc(SCc3nc4ccccc4[nH]3)nc2n1
IC50 (SW-620 [1]): 0.34 µM | fold change (FC) (SW-620 [2]): 12.44

Structure (SMILES): Cc1cc(Nc2ccc(C(=O)/C=C/c3ccc4ccccc4c3)cc2)n2nc(SCc3ccccc3[N+](=O)[O-])nc2n1
fold change (FC) (SW-620 [5]): 4.36 | IC50 (SW-620 [6]): 0.96 µM

Structure (SMILES): O[C@@H](COc1cccc2ncccc12)CN1CCN([C@@H]2c3ccccc3[C@@H]3[C@H](c4ccccc42)C3(F)F)CC1 [ZOSUQUIDAR]
IC50 (SW-620 [1]): 0.059 µM | fold change (FC) (SW-620 [2]): 71.1

Structure (SMILES): Cc1cc(Nc2ccc(C(=O)/C=C/c3cccc(F)c3)cc2)n2nc(SCc3nc4ccccc4[nH]3)nc2n1
IC50 (SW-620 [1]): 0.59 µM | fold change (FC) (SW-620 [2]): 7.17

Structure (SMILES): C=CCSc1nc2nc(C)cc(Nc3ccc(C(=O)/C=C/c4ccc5ccccc5c4)cc3)n2n1
IC50 (SW-620 [11]): 0.92 µM | fold change (FC) (SW-620 [12]): 4.6

Structure (SMILES): Cc1cc(Nc2ccc(C(=O)/C=C/c3ccccc3Cl)cc2)n2nc(SCc3nc4ccccc4[nH]3)nc2n1
IC50 (SW-620 [1]): 0.68 µM | fold change (FC) (SW-620 [2]): 6.22
